Tests used:
U266 cells [1] = assay: Mitochondrial transmembrane potential (TMRE assay) in U266 cells; assay type: cell-based, human
Description: The loss of mitochondrial transmembrane potential (Δψm), a marker of early apoptotic events, was determined by staining with TRME [(tetramethylrhodamine-ethyl-ester-perchlorate), Santa Cruz Biotechnology Inc.]. TMRE is a cell-permeable dye that becomes fluorescent once it is inside the mitochondria and, it can be detected using a fluorescent plate reader (Tecan). Briefly, cells (10e6 cells per assay) were treated with different concentrations of WIN-55 in presence or absence of SPT-inhibitor for 15, 30, 45 and 60 min at 37° C. After washing twice, cells were incubated for 20 min at 37° C. in the dark with 1 uM TMRE. The fluorescent intensity was read in the plate reader with excitation and emission wavelengths set at 485 and 538 nm respectively for red fluorescence. For each condition, triplicate samples (at least five times) were run, fluorescent readings were corrected for background. In all assays, CCCP (2-[2-(3-Chlorophenyl) hydrazinylyidene] propanedinitrile, a potent mitochondrial uncoupler, was used as a positive control of mitochondrial potential status.
The early loss of mitochondrial-membrane potential induced by cannabinoids. To delve into the processes that participate in cannabinoid-induced apoptosis, finally we tested whether the cannabinoid treatment induces changes on Δψm in myelomatous cells. We observed that cannabinoids induced a drop of Δψm in U266 cells (FIG. 10). […]

U266 cells [2] = assay: Western blot of signaling pathways (MAPKs, Akt) in U266 cells; assay type: cell-based, human
Description: Protein analyses were performed by Western blot in several sets of assays: expression pattern of CBs-receptors in MM cell lines and primary cells, and time course after treatment with cannabinoids in MM cell lines. Time-course assays were performed at 0, 2, 6, 18 and 24 hours. Anyway, obtaining cell lysates was conducted according to a protocol adapted to phosphorylation-dependent signaling, described by Gilbert et al. (2002). Briefly, 10e7 cells per condition were harvested at indicated times, washed with iced-cold PBS and lysate in isotonic lysis buffer 30 min keeping on ice. Isotonic lysis buffer contained 2% ASB-14 (CalbioChem, San Diego, Calif., USA),1% Nonidet P-40 (Ipegal®), 137 mM NaCl, 20mM Tris-HCl pH 7.5 at 4° C. (all from Sigma-Aldrich), 2 mM Na3VO4, 20 mM NaF (New England BioLabs Inc., Ipswich, Mass., USA), 2 mM DTT (AppliChem, Darmstadt, Germany), protease inhibitor cocktail (Roche Diagnostics GmbH, Mannheim, Germany), and 10 ul Nuclease Mix (Amersham GE Healthcare, Uppsala, Sweden). After lysis, samples were centrifuged at 13,000×g for 5 min at 4° C., and supernatants collected. Protein concentration in samples was determined by Pierce® Microplate BCA Protein Assay kit-Reducing Agent Compatible (Thermo Fisher Scientific). Before loading the samples in the gel, they were diluted in loading sample buffer (0.125 M Tris-HCl pH 6.8, 4% SDS, 20% glycerol, 0.02% Bromophenol Blue, 200 mM DTT) and the mixture was heated at 70° C. for 5 min in a thermoblock (LabNet International, N.J., USA).
Samples (15-25 ug/lane) were subjected to SDS/PAGE in pre-cast polyacrylamide gels AnykD (Bio-Rad Laboratories, Hercules, CA, USA) under reducing and denaturing conditions. Electrophoretic run was performed at a constant current of 15 mA per gel in a Mini-Protean® Tetra Cell (Bio-Rad Laboratories). Once proteins were separated by electrophoresis, were transferred onto PVDF membranes using Trans-Blot® Turbo™ System (Bio-Rad Laboratories). Electrotransference was conducted at constant amperage of 1.2 mA and at up to 25 V of voltage. The blotted membranes were then blocked with 2% bovine serum albumin [(BSA), Santa Cruz Biotechnology] in Tween-Tris buffer saline (TTBS) for 30 min with gentle agitation, and incubated overnight at 4° C. with corresponding primary antibody in TTBS. After twice washing with TTBS, membranes were incubated for 1-2 h at room temperature with suitable conjugated-HRP secondary antibody, and subjected to chemiluminescence detection using Western Blotting Luminol Reagent (Santa Cruz Biotechnology). Loading controls were carried out with an anti-beta-actin and anti-beta-tubulin antibodies (Sigma-Aldrich). Blots were captured using a digital imaging system ImageQuant LAS 4000 (Amersham GE Healthcare) and transferred to a digital image processing software to analyze (Adobe Photoshop CS2, version 9.0., Adobe Systems Inc., San Jose, Calif.).
Signaling pathways targeted by cannabinoids in myelomatous cells. To get further insights into the mechanisms of cannabinoids-induced apoptosis, we assessed the expression profile of phosphorylated-JNK, -Erk1/2, -p38 MAPK and -Akt by Western blot.

SMILES: CS(=O)(=O)O.Cc1c(C(=O)c2cccc3ccccc23)c2cccc3c2n1[C@H](CN1CCOCC1)CO3 [WIN-55, (R)-(+)-[2,3-dihydro-5-methyl-3-(4-morpholinylmethyl)-pyrrolo-[1,2,3]-1,4-benzoxazin-6-yl]-1-naphthalenylmethanone mesylate]
- mitochondrial membrane potential (Δψm) (U266 cells [1]): early loss of potential of mitochondrial membrane
- p-Akt at early time points (U266 cells [2]; U266): significant up-regulation
- p-Akt expression levels at later times (U266 cells [2]; U266): sharp decline
- total Akt-expression, first 6 hours of exposure (U266 cells [2]; U266): remained unchanged
- p-JNK (U266 cells [2]; U266, WIN-55 50 uM): slightly up-regulated
- up-regulation of p-Erk1/2, compared with the slight up-regulation of p-JNK (U266 cells [2]; U266, WIN-55 50 uM): to a lesser extent
- p-p38 MAPK (U266 cells [2]; U266, time-dependent): moderately downregulated
